Test results from US11325896B2, “Antagonists of the muscarinic acetylcholine receptor M4” (Vanderbilt University, priority 2017, dated 2022).

Legend:
[1] = target: T1, human mAChR M4 (Homo sapiens, UniProt P08173); experiment: mAChR M4 cell-based functional assay (calcium flux, decrease of EC80 acetylcholine response); settings: for remaining activity at 30 µM: % ACh maximum at 30 μM, human M4, read-out: Emin; for IC50: M4/Gqi5/CHO-K1 cells, decrease of response to EC80 acetylcholine
T1 construct: expressed in transfected cells; host or cells: CHO-K1 (ATCC), stably co-expressing the chimeric G protein Gqi5
T1 sequence (P08173 1-479): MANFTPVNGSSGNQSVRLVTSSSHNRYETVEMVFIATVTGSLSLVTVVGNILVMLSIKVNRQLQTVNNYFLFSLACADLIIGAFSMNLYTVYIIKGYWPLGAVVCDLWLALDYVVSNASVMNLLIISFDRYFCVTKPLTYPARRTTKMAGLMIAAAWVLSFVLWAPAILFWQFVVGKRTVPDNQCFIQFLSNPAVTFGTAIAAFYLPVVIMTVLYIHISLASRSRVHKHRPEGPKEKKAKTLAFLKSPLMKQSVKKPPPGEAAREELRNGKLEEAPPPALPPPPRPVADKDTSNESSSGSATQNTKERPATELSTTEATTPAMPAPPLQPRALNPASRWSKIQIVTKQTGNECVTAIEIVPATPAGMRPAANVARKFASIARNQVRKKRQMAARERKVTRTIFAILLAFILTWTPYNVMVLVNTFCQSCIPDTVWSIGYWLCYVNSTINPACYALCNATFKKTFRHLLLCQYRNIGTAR
Method: Human or rat M4 cDNA, along with the chimeric G protein Gqi5, were transfected into Chinese hamster ovary (CHO-K1) cells purchased from the American Type Culture Collection using Lipofectamine2000. M4/Gqi5/CHO cells were grown in Ham's F-12 medium containing 10% heat-inactivated fetal bovine serum (FBS), 20 mM HEPES, 500 μg/mL G418 sulfate, and 200 μg/mL Hygromycin B.
For high throughput measurement of agonist-evoked increases in intracellular calcium, CHO-K1 cells stably expressing muscarinic receptors were plated in growth medium lacking G418 and hygromycin at 15,000 cells/20 μL/well in Greiner 384-well black-walled, tissue culture (TC)-treated, clear-bottom plates (VWR). Cells were incubated overnight at 37° C. and 5% CO2. The next day, cells were washed using an ELX 405 (BioTek) with assay buffer: the final volume was then aspirated to 20 μL. Next, 20 μL of a 2.3 μM stock of Fluo-4/acetoxymethyl ester (Invitrogen, Carlsbad, Calif.), prepared as a 2.3 mM stock in DMSO and mixed in a 1:1 ratio with 10% (w/v) Pluronic F-127 and diluted in assay buffer, was added to the wells and the cell plates were incubated for 50 min at 37° C. and 5% CO2. Dye was removed by washing with the ELX 405 and the final volume was aspirated to 20 μL. Compound master plates were formatted in a 10 point concentration-response curve (CRC) format (1:3 dilutions) in 100% DMSO with a starting concentration of 10 or 1 mM using a BRAVO liquid handler (Agilent). Test compound CRCs were then transferred to daughter plates (240 nL) using the Echo acoustic plate reformatter (Labcyte, Sunnyvale, Calif.) and then diluted into assay buffer (40 μL) to a 2× stock using a Thermo Fisher Combi (Thermo Fisher Scientific, Waltham, Mass.).
Calcium flux was measured using the Functional Drug Screening System (FDSS) 6000 or 7000 (Hamamatsu Corporation, Tokyo, Japan) as an increase in the fluorescent static ratio. Compounds were applied to cells (20 μL, 2×) using the automated system of the FDSS at 2 seconds into the protocol and the data were collected at 1 Hz. At 143 s, 10 μL of an EC20 concentration of the muscarinic receptor agonist acetylcholine was added (5×), followed by the addition of 12 μL of an EC80 concentration of acetylcholine at the 268 s time point (5×). Agonist activity was analyzed as a concentration-dependent increase in calcium mobilization upon compound addition. Positive allosteric modulator activity was analyzed as a concentration-dependent increase in the EC20 acetylcholine response. Antagonist activity was analyzed as a concentration-dependent decrease in the EC80 acetylcholine response; for the purposes of the tables herein, an IC50 (inhibitory concentration 50) was calculated as a concentration-dependent decrease of the response elicited by an EC80 concentration of acetylcholine. Concentration-response curves were generated using a four-parameter logistical equation in XLFit curve fitting software (IDBS, Bridgewater, N.J.) for Excel (Microsoft, Redmond, Wash.) or Prism (GraphPad Software, Inc., San Diego, Calif.) or the Dotmatics software platform (Dotmatics, Bishop's Stortford, UK).
Compounds were synthesized as described above. Activity (IC50 and Emin) was determined in the mAChR M4 cell-based functional assay as described above and the data are shown in Table 4. The compound numbers correspond to those used in Examples 1-4 and Tables 1-3.

[2] = test system: haloperidol-induced catalepsy; experiment: haloperidol-induced catalepsy in mice; type: in vivo
Text: Furthermore, haloperidol-induced catalepsy, a model of parkinsonian motor disability, is reduced in M4 knockout mice as compared to wild-type controls. […] The reversal by scopolamine was uncommonly robust and more pronounced than we observe with agents targeting a number of other targets being evaluated for potential antiparkinsonian effects, including metabotropic glutamate (mGlu) receptors mGlu4 or mGlu5, A2A adenosine receptors, and NMDA receptors. […] Taken together with the extensive studies of M4 modulation of basal ganglia and motor function, these studies provide compelling evidence that M4 is the dominant mAChR subtype involved in the antiparkinsonian effects of non-selective mAChR antagonists and provide support for discovery and development of selective M4 antagonists for treatment of neurodegenerative disease such as PD, dystonia, tardive dyskinesia and other movement disorders.

[3] = test system: M4 knockout mice; settings: not the other four mAChR subtypes; cited from earlier work

| remaining activity at 30 µM [1] [%] | IC50 [1] [µM] | SMILES | reduction of catalepsy induced by haloperidol ([2]; M4 KO mice) | reversal of catalepsy induced by haloperidol ([2]; WT mice) | locomotor-activating effects [3] |
| --- | --- | --- | --- | --- | --- |
| 36.4 | 10 | Cc1nn(C)cc1-c1ccc(OCC2CC3(C2)CN(Cc2ccccc2)C3)nn1 [Compound 24, 2-benzyl-6-(((6-(1,3-dimethyl-1H-pyrazol-4-yl)pyridazin-3-yl)oxy)methyl)-2-azaspiro[3.3]heptane] |  |  |  |
| 16.5 | 4.2 | Cc1cccnc1CN1CC2(CC(COc3ccc(-c4cn(C)nc4C)nn3)C2)C1 [Compound 25, 6-(((6-(1,3-dimethyl-1H-pyrazol-4-yl)pyridazin-3-yl)oxy)methyl)-2-((3-methylpyridin-2-yl)methyl)-2-azaspiro[3.3]heptane] |  |  |  |
|  |  | CN1[C@@H]2C[C@@H](OC(=O)[C@H](CO)c3ccccc3)C[C@H]1[C@@H]1O[C@@H]12 [scopolamine] | ineffective | completely reversed | dramatically reduced |
